# Values of other authors as cited in patent publication US20160303050A1, “FORMULATIONS CONTAINING DIACEREIN AND METHODS OF LOWERING BLOOD LEVELS OF URIC ACID USING THE SAME” (TWi Biotechnology, Inc., priority 2015, published 2016).
# Details: single oral administration of 50 mg, healthy volunteers
compound,measurement,setting,value
"CC(=O)Oc1cccc2c1C(=O)c1c(OC(C)=O)cc(C(=O)O)cc1C2=O [diacerein, 4,5-bis (acetyloxy) 9,10-dihydro-4,5-dihydroxy-9,10-dioxo-2-anthracenecarboxylic acid]",fasting Tmax,fasting,2.4 h
same,Tmax with a meal,with a meal,5.2 h
